Each structure is given as a SMILES string.

GCN2, sequence (Q9P2K8 whole entry): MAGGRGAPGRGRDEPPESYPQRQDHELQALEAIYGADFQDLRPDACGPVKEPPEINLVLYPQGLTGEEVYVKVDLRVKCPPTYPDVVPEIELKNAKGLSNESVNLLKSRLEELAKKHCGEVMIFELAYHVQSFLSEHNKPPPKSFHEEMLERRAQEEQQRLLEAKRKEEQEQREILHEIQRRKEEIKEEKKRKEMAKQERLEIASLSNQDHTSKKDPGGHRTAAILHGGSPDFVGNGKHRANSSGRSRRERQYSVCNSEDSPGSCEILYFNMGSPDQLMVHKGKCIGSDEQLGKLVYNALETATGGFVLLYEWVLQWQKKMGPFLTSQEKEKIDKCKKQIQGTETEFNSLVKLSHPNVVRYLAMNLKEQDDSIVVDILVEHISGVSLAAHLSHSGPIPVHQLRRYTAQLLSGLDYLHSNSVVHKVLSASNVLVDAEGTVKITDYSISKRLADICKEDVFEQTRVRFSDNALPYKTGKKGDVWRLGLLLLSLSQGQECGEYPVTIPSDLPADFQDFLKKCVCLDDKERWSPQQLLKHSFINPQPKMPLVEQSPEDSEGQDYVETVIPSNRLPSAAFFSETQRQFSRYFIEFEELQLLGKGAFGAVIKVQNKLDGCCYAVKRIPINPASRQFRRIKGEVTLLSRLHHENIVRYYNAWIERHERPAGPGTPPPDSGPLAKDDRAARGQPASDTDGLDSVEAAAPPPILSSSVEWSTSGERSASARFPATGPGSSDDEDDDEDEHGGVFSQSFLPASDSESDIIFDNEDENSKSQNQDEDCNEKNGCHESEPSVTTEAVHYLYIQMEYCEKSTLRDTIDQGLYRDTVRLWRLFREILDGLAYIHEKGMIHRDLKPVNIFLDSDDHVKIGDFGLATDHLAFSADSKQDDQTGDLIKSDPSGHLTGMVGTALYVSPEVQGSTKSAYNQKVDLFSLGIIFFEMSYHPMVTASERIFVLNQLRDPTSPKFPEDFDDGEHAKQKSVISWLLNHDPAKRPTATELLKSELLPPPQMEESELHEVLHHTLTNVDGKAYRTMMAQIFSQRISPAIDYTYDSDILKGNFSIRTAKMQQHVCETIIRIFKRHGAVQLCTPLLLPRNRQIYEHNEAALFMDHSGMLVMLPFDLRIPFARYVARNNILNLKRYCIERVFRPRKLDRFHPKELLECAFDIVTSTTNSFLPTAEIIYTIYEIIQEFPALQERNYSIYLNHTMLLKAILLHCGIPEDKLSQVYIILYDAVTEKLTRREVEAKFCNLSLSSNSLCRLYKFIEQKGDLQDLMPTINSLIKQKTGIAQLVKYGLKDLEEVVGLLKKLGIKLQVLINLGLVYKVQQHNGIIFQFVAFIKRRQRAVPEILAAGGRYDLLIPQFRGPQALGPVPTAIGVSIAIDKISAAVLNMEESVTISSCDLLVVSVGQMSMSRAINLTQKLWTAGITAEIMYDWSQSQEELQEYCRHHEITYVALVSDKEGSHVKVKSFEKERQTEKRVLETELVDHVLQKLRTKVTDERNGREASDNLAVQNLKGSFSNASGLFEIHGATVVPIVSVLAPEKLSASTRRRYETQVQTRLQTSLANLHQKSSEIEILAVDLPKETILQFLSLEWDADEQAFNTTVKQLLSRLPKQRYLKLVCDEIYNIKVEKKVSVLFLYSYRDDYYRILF

The assay addresses GCN2 (Homo sapiens (Human), UniProt Q9P2K8). Put plainly: GCN2 Biochemical Assay (TR-FRET, GFP-eIF2S1 substrate phosphorylation). The settings on record: read-out: IC50 (GCN2 Inhibitory Activity). The method in brief:
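TR-FRET readout (Ex 340, Em 490/520 nm) after 2–3 h with Tb-labelled phospho-eIF2S1 antibody in stop mix, following a 70 min room-temperature kinase step. Reaction: in-house GCN2, GFP-eIF2S1, ATP, tRNA in Tris pH 7.5 (2× stocks 1.6 nM, 50 nM, 0.2 mM); compounds tested at 10 concentrations, with a phospho-substrate artifact counter-plate.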
Turning to `Cc1cnc(Nc2cc(C)n(C)n2)nc1-c1c[nH]c2c(N3Cc4c(NC(=O)C5CC=CC5)cccc4C3=O)cccc12` [Example 310, N-(2-(3-(2-((1,5-dimethyl-1H-pyrazol-3-yl)amino)-5-methylpyrimidin-4-yl)-1H-indol-7-yl)-1-oxoisoindolin-4-yl)cyclopent-3-ene-1-carboxamide], the IC50 – broadly, the concentration at which inhibition is half-maximal – is below 10 nM.

Regarding `Cc1cnc(Nc2cc(C)n(C)n2)nc1-c1c[nH]c2c(NC(=O)CN3CC[C@H](Oc4cc(N)[nH]n4)C3)cccc12` [Example 119, (S)-2-(3-((5-amino-1H-pyrazol-3-yl)oxy)pyrrolidin-1-yl)-N-(3-(2-((1,5-dimethyl-1H-pyrazol-3-yl)amino)-5-methylpyrimidin-4-yl)-1H-indol-7-yl)acetamide], the IC50 fell in the range of 10 to 100 nM.

`CCN(C)c1nc(O[C@H]2CCN(CC(=O)Nc3cccc4c(-c5nc(Nc6cc(C)n(C)n6)ncc5C)c[nH]c34)C2)ncc1F` [Example 182, (S)-N-(3-(2-((1,5-dimethyl-1H-pyrazol-3-yl)amino)-5-methylpyrimidin-4-yl)-1H-indol-7-yl)-2-(3-((4-(ethyl(methyl)amino)-5-fluoropyrimidin-2-yl)oxy)pyrrolidin-1-yl)acetamide]: the IC50 is below 10 nM.

`Cc1cnc(Nc2cc(C)n(C)n2)nc1-c1c[nH]c2c(N3Cc4c(cccc4-c4ccoc4)C3=O)cccc12` [Example 393, 2-(3-(2-((1,5-dimethyl-1H-pyrazol-3-yl)amino)-5-methylpyrimidin-4-yl)-1H-indol-7-yl)-4-(furan-3-yl)isoindolin-1-one]: the IC50 was below 10 nM.

On to `Cc1cnc(Nc2cc(C)n(C)n2)nc1-c1c[nH]c2c(N3Cc4c(NC(=O)C5(C)CCCNC5)cccc4C3=O)cccc12` (stereo not shown) [Example 332, N-(2-(3-(2-((1,5-dimethyl-1H-pyrazol-3-yl)amino)-5-methylpyrimidin-4-yl)-1H-indol-7-yl)-1-oxoisoindolin-4-yl)-3-methylpiperidine-3-carboxamide], for which the 50% inhibitory concentration (IC50) is below 10 nM.

On to `Cc1cnc(Nc2cc(C)n(CCN3CCOCC3)n2)nc1-c1c[nH]c2c(NC(=O)CN3CC[C@H](Oc4ccnc(NC5CC5)n4)C3)cccc12` [Example 17, (S)-2-(3-((2-(cyclopropylamino)pyrimidin-4-yl)oxy)pyrrolidin-1-yl)-N-(3-(5-methyl-2-((5-methyl-1-(2-morpholinoethyl)-1H-pyrazol-3-yl)amino)pyrimidin-4-yl)-1H-indol-7-yl)acetamide], for which the IC50 is below 10 nM.

As for `Cc1cnc(Nc2cc(C)n(C)n2)nc1-c1c[nH]c2c(N3Cc4c(/C=C/C(=O)NCCO)cccc4C3=O)cccc12` [Example 372, (E)-3-(2-(3-(2-((1,5-dimethyl-1H-pyrazol-3-yl)amino)-5-methylpyrimidin-4-yl)-1H-indol-7-yl)-1-oxoisoindolin-4-yl)-N-(2-hydroxyethyl)acrylamide], the IC50 is below 10 nM.

`Cc1cnc(Nc2cc(C)n(C)n2)nc1-c1c[nH]c2c(N3Cc4c(NC(=O)c5ccccc5)cccc4C3=O)cccc12` [Example 294, N-(2-(3-(2-((1,5-dimethyl-1H-pyrazol-3-yl)amino)-5-methylpyrimidin-4-yl)-1H-indol-7-yl)-1-oxoisoindolin-4-yl)benzamide]: the 50% inhibitory concentration (IC50) lay in the range of 10 to 100 nM.

As for `Cc1cnc(Nc2cc(C)n(C)n2)nc1-c1c[nH]c2c(N3Cc4c(NC(=O)c5cc(O)ncn5)cccc4C3=O)cccc12` [Example 339, N-(2-(3-(2-((1,5-dimethyl-1H-pyrazol-3-yl)amino)-5-methylpyrimidin-4-yl)-1H-indol-7-yl)-1-oxoisoindolin-4-yl)-6-hydroxypyrimidine-4-carboxamide], the IC50 is below 10 nM.

For the compound `Cc1cnc(Nc2cc(C)n(C)n2)nc1-c1c[nH]c2c(N3C(=O)c4ccccc4C3=O)cccc12` [Example 260, 2-(3-(2-((1,5-dimethyl-1H-pyrazol-3-yl)amino)-5-methylpyrimidin-4-yl)-1H-indol-7-yl)isoindoline-1,3-dione], the IC50 was below 10 nM.

As for `Cc1cnc(Nc2cc(C)n(C)n2)nc1-c1c[nH]c2c(N3Cc4c(NC(=O)C5CCCOC5)cccc4C3=O)cccc12` (stereo not shown) [Example 327, N-(2-(3-(2-((1,5-dimethyl-1H-pyrazol-3-yl)amino)-5-methylpyrimidin-4-yl)-1H-indol-7-yl)-1-oxoisoindolin-4-yl)tetrahydro-2H-pyran-3-carboxamide], the IC50 was below 10 nM.

`Cc1cnc(Nc2cc(C)n(C)n2)nc1-c1c[nH]c2c(NC(=O)CN3CC[C@H](Oc4ccnc(NCCO)n4)C3)cccc12` [Example 215, (S)-N-(3-(2-((1,5-dimethyl-1H-pyrazol-3-yl)amino)-5-methylpyrimidin-4-yl)-1H-indol-7-yl)-2-(3-((2-((2-hydroxyethyl)amino)pyrimidin-4-yl)oxy)pyrrolidin-1-yl)acetamide]: the IC50 was below 10 nM.

As for `Cc1cnc(Nc2cc(C)n(C)n2)nc1-c1c[nH]c2c(N3Cc4cccc(NC(=O)c5ccccc5)c4C3=O)cccc12` [Example 293, N-(2-(3-(2-((1,5-dimethyl-1H-pyrazol-3-yl)amino)-5-methylpyrimidin-4-yl)-1H-indol-7-yl)-3-oxoisoindolin-4-yl)benzamide], the half-maximal inhibitory concentration (IC50) was in the range of 100 to 1000 nM.

In the case of `Cc1cnc(Nc2cc(C)n(C)n2)nc1-c1c[nH]c2c(NC(=O)CN3CC[C@H](Oc4cnc(-c5ccncc5)nc4)C3)cccc12` [Example 259, (S)-N-(3-(2-((1,5-dimethyl-1H-pyrazol-3-yl)amino)-5-methylpyrimidin-4-yl)-1H-indol-7-yl)-2-(3-((2-(pyridin-4-yl)pyrimidin-5-yl)oxy)pyrrolidin-1-yl)acetamide], the IC50 was 10 to 100 nM.

As for `Cc1cnc(Nc2cc(C)n(C)n2)nc1-c1c[nH]c2c(N3Cc4c(-c5ccncc5)ccnc4C3=O)cccc12` [Example 494, 6-(3-(2-((1,5-dimethyl-1H-pyrazol-3-yl)amino)-5-methylpyrimidin-4-yl)-1H-indol-7-yl)-4-(pyridin-4-yl)-5,6-dihydro-7H-pyrrolo[3,4-b]pyridin-7-one], the half-inhibitory concentration (IC50) was below 10 nM.

For `Cc1cnc(Nc2cc(C)n(C)n2)nc1-c1c[nH]c2c(NC(=O)CN3CC[C@H](Oc4nccc(N5CCCCC5)n4)C3)cccc12` [Example 174, (S)-N-(3-(2-((1,5-dimethyl-1H-pyrazol-3-yl)amino)-5-methylpyrimidin-4-yl)-1H-indol-7-yl)-2-(3-((4-(piperidin-1-yl)pyrimidin-2-yl)oxy)pyrrolidin-1-yl)acetamide], the concentration for half-maximal inhibition (IC50) was below 10 nM.

Regarding `Cc1cnc(Nc2cc(C)n(C)n2)nc1-c1c[nH]c2c(N3Cc4c(cccc4-c4ccnc(N)c4)C3=O)cccc12` [Example 399, 4-(2-aminopyridin-4-yl)-2-(3-(2-((1,5-dimethyl-1H-pyrazol-3-yl)amino)-5-methylpyrimidin-4-yl)-1H-indol-7-yl)isoindolin-1-one], the IC50 is below 10 nM.

As to `Cc1cnc(Nc2cc(C)n(C)n2)nc1-c1c[nH]c2c(NC(=O)C(C)N3CC[C@H](Oc4ccncc4)C3)cccc12` (stereo partly drawn) [Example 23, N-(3-(2-((1,5-dimethyl-1H-pyrazol-3-yl)amino)-5-methylpyrimidin-4-yl)-1H-indol-7-yl)-2-((S)-3-(pyridin-4-yloxy)pyrrolidin-1-yl)propenamide], the 50% inhibitory concentration (IC50) was in the range of 100 to 1000 nM.

Turning to `Cc1cscc1-c1cccc2c1CN(c1cccc3c(-c4nc(Nc5cc(C)n(C)n5)ncc4C)c[nH]c13)C2=O` [Example 453, 2-(3-(2-((1,5-dimethyl-1H-pyrazol-3-yl)amino)-5-methylpyrimidin-4-yl)-1H-indol-7-yl)-4-(4-methylthiophen-3-yl)isoindolin-1-one], the IC50 was 10 to 100 nM.

Take `Cc1cnc(Nc2cc(C)n(C)n2)nc1-c1c[nH]c2c(N3Cc4c(cccc4-c4cc(N5CCN(C)CC5)ccn4)C3=O)cccc12` [Example 423, 2-(3-(2-((1,5-dimethyl-1H-pyrazol-3-yl)amino)-5-methylpyrimidin-4-yl)-1H-indol-7-yl)-4-(4-(4-methylpiperazin-1-yl)pyridin-2-yl)isoindolin-1-one]: the IC50 was below 10 nM.

For `Cc1cnc(Nc2cc(C)n(C)n2)nc1-c1c[nH]c2c(N3Cc4cccc(NC(=O)C5CCCCC5)c4C3=O)cccc12` [Example 292, N-(2-(3-(2-((1,5-dimethyl-1H-pyrazol-3-yl)amino)-5-methylpyrimidin-4-yl)-1H-indol-7-yl)-3-oxoisoindolin-4-yl)cyclohexanecarboxamide], the IC50 was 100 to 1000 nM.

For `Cc1cnc(Nc2cc(C)n(C)n2)nc1-c1c[nH]c2c(N3Cc4c(cccc4-c4ccncn4)C3=O)cccc12` [Example 421, 2-(3-(2-((1,5-dimethyl-1H-pyrazol-3-yl)anlino)-5-methylpyrimidin-4-yl)-1H-indol-7-yl)-4-(pyrimidin-4-yl)isoindolin-1-one], the half-maximal inhibitory concentration (IC50) is below 10 nM.

With `Cc1cnc(O[C@H]2CCN(CC(=O)Nc3cccc4c(-c5nc(Nc6cc(C)n(C)n6)ncc5C)c[nH]c34)C2)nc1NC1CC1` [Example 191, (S)-2-(3-((4-(cyclopropylamino)-5-methylpyrimidin-2-yl)oxy)pyrrolidin-1-yl)-N-(3-(2-((1,5-dimethyl-1H-pyrazol-3-yl)amino)-5-methylpyrimidin-4-yl)-1H-indol-7-yl)acetamide], the IC50 was below 10 nM.

`Cc1cnc(Nc2cc(C)n(C)n2)nc1-c1c[nH]c2c(NC(=O)CN3CC[C@H](Oc4ccnc(N5CCN(C)CC5)n4)C3)cccc12` [Example 225, (S)-N-(3-(2-((1,5-dimethyl-1H-pyrazol-3-yl)amino)-5-methylpyrimidin-4-yl)-1H-indol-7-yl)-2-(3-((2-(4-methylpiperazin-1-yl)pyrimidin-4-yl)oxy)pyrrolidin-1-yl)acetamide]: the IC50 is below 10 nM.

As for `Cc1cnc(Nc2cc(C)n(C)n2)nc1-c1c[nH]c2c(N3Cc4c(cccc4-c4ccc(N5CCN(C)CC5)cc4)C3=O)cccc12` [Example 426, 2-(3-(2-((1,5-dimethyl-1H-pyrazol-3-yl)amino)-5-methylpyrimidin-4-yl)-1H-indol-7-yl)-4-(4-(4-methylpiperazin-1-yl)phenyl)isoindolin-1-one], the IC50 is below 10 nM.

Source of the values: patent US20240025884A1 (Dong-A ST Co., Ltd., priority 2022, published 2024).
